Laboratory results published in PubChem BioAssay (NCI).
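Step 1: Grow cells in 96-well plates. Step 2: Expose to compound for 48 hours at 5 concentrations. Step 3: Interpolate endpoints linearly; if unreached, use highest concentration. Abbreviation: GI50, concentration required for 50% inhibition of growth. At the TGI there is no net growth.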

Legend:
Assay in all cases: NCI-60 cell line screen, 48 h
[1] = test system: SF-268 CNS
[2] = test system: 786-0 renal
[3] = test system: HOP-92 NSCLC
[4] = test system: IGROV1 ovarian
[5] = test system: NCI-H522 lung
[6] = test system: M14 melanoma
[7] = test system: A549 NSCLC
[8] = test system: HT29 colon
[9] = test system: MOLT-4 leukemia

Row | Compound | TGI [1] [µM] | TGI [2] [µM] | TGI [3] [µM] | TGI [4] [µM] | TGI [5] [µM] | TGI [6] [µM] | TGI [7] [µM] | TGI [8] [µM] | TGI [9] [µM] | GI50 [1] [µM] | GI50 [3] [µM] | GI50 [4] [µM] | GI50 [5] [µM] | GI50 [6] [µM] | GI50 [7] [µM] | GI50 [8] [µM] | GI50 [9] [µM]
1 | COc1ccc(C=O)cc1OS(=O)(=O)C(F)(F)C(F)(F)C(F)(F)C(F)(F)F | > 100 | > 84.1 | 58.6 | > 67.5 | > 60.1 | > 80.5 | > 100 | > 90.5 | > 20 | – | – | – | – | – | – | – | –
2 | OC(Cc1cc(CC(O)(C(F)(F)F)C(F)(F)F)nc(CC(O)(C(F)(F)F)C(F)(F)F)c1)(C(F)(F)F)C(F)(F)F | 4.87 | 6.34 | 3.45 | 5.58 | 8.98 | 8.25 | 9.69 | 6.24 | > 10 | – | – | – | – | – | – | – | –
3 | OCC1OC(n2cnc3c(Cl)nc(Nc4ccc(Cl)c(Cl)c4)nc32)CC1O (centres undefined) | 28.6 | 19.4 | 16.3 | 27.8 | 18.1 | 32 | > 50 | 15.2 | 12.5 | – | – | – | – | – | – | – | –
4 | CC1(C)[C@H]2Cc3cc4nc5ccccn5c4cc3[C@@H]1C2 | 34.5 | 32.7 | 29.3 | 43 | 21.9 | 38.2 | 40.7 | 28.3 | 54.8 | – | – | – | – | – | – | – | –
5 | Cc1ccc(-c2cc(=O)c(=O)[nH][nH]2)cc1 | > 100 | > 100 | > 100 | > 100 | > 100 | > 100 | > 100 | > 100 | > 100 | – | – | – | – | – | – | – | –
6 | CC(C)c1c(O[Si](C(C)C)(C(C)C)C(C)C)cc2c(c1O)CC[C@H]1C(C)(C)CCC[C@]21C | > 100 | > 100 | > 100 | > 100 | > 100 | > 100 | > 100 | > 100 | > 100 | – | – | – | – | – | – | – | –
7 | c1ccc(/C(=N/Nc2ccccn2)c2cccnn2)cc1 | 6.42 | > 100 | > 39.5 | 18 | 4.93 | 18.5 | > 69.8 | > 58.8 | 27.1 | – | – | – | – | – | – | – | –
8 | Cn1c(=O)c2c(=O)cc(N)[nH]c2n(C)c1=O | > 100 | > 100 | > 100 | > 100 | > 100 | > 100 | > 100 | > 100 | > 100 | – | – | – | – | – | – | – | –
9 | O=c1c2cc([N+](=O)[O-])ccc2n2n1CCCCC2 | > 100 | > 100 | > 100 | > 100 | > 100 | > 100 | > 100 | > 100 | > 100 | – | – | – | – | – | – | – | –
10 | C=C1CC[C@@H]2[C@](C)(COC(=O)CCC(=O)O)CCC[C@@]2(C)[C@@H]1CCC1=CC(=O)OC1 | > 100 | > 100 | > 100 | > 100 | > 100 | > 100 | > 100 | > 100 | > 100 | – | – | – | – | – | – | – | –
11 | C=C(C)CCC(O)[C@](C)(O)[C@H]1[C@H](O)C[C@@]2(C)[C@@H]3CCc4c(cc(OC5OC(CO)C(O)C(O)C5O)c(O)c4C)C3(C)C(=O)C[C@]12C (some centres undefined) | > 100 | > 100 | > 100 | > 100 | > 100 | > 100 | > 100 | > 100 | > 100 | – | – | – | – | – | – | – | –
12 | CC1CC(=O)Nc2ccccc2N1C(=O)C1CC1 (centres undefined) | > 100 | > 100 | > 100 | > 100 | > 100 | > 100 | > 100 | > 100 | > 100 | – | – | – | – | – | – | – | –
13 | Cc1cccc(-c2nc(-c3cnccn3)n(Cc3ccccc3)n2)c1 | > 100 | > 100 | 79.6 | > 100 | > 100 | > 100 | > 100 | > 100 | > 100 | – | – | – | – | – | – | – | –
14 | O=CC1OC(=O)c2cc(O)c(O)c(O)c2-c2c(cc(O)c(O)c2O)C(=O)OC1C1OC(=O)c2cc(O)c(O)c(O)c2-c2c(O)c(O)c3oc(=O)c4c(c(O)c(O)c5oc(=O)c2c3c54)-c2c(cc(O)c(O)c2O)C(=O)OCC1O (centres undefined) | > 100 | 42.6 | > 100 | > 100 | 85.7 | > 100 | > 100 | 29.6 | 90.1 | – | – | – | – | – | – | – | –
15 | CC/C=C\C=C/C(=O)N/C=C/CCC | > 100 | > 100 | > 100 | > 100 | 36 | > 100 | > 100 | > 100 | 95.6 | – | – | – | – | – | – | – | –
16 | Cc1ccc(S(=O)(=O)Nn2c(S)c(C#N)c(-c3ccc(Cl)cc3)c(C#N)c2=O)cc1 | – | > 100 | > 100 | 59.4 | 37.4 | > 100 | > 100 | – | > 100 | – | – | – | – | – | – | – | –
17 | CC(C)C(=O)/C=C/c1c(Cl)cccc1Cl | 10.5 | 20.1 | 26.6 | 14.2 | 3.11 | 6.69 | 21.9 | 11.2 | > 100 | – | – | – | – | – | – | – | –
18 | CC(=O)OCC1OC(O[C@H]2C=C[C@@H](C(=O)OCc3ccccc3)n3c(=O)n(-c4ccccc4)c(=O)n32)C(OC(C)=O)C(OC(C)=O)C1OC(C)=O (some centres undefined) | 4.23 | 4.51 | 3.9 | 6.13 | 2.83 | 2.95 | 35.3 | 3.49 | 5.72 | – | – | – | – | – | – | – | –
19 | COCCCNc1c2ccccc2nc2ccccc12 | 16.8 | 17.9 | 12.5 | 22.9 | 6.8 | 3.89 | 14 | 51.8 | > 100 | – | – | – | – | – | – | – | –
20 | CON[N+]([O-])=NC(C)C | > 100 | > 100 | > 100 | > 100 | > 100 | > 100 | > 100 | > 100 | > 100 | – | – | – | – | – | – | – | –
21 | COc1cc(N(CCCl)CCCl)ccc1/C=N\NC(=O)c1cccnc1 | > 100 | – | 45.4 | > 100 | 65.8 | > 100 | > 100 | > 100 | 67.4 | 36.6 | 14.1 | 36 | 21.8 | 37.5 | 12.1 | 34.8 | 22.3
